In the experiment the test system is human embryonic stem cells line H1. The experiment can be described thus: IN Cell Analyzer imaging of PDX1, NKX6.1 and CDX2 expressing cells at stage 4 day 4 (Example 1). It counts as cell-based. The protocol:
Treatment 1: DMEM-High glucose+1% B27 for four days (stage 4-basal media-BM), or […].
Parallel populations of Stage 3 cells were also treated with the following protein kinase C activators—phorbol-12-myristate-13-acetate (PMA) at a concentration of 20 nM (Calbiochem #524400), or [(2S, 5S)-(E, E)-8-(5-(4-(Trifluoromethyl)pheny)-2,4-pentadienoylamino)benzolactam] (TPB) at a concentration of 50 nM (Calbiochem #565740), substituted for PDBu in treatment 3 above. At the end of stage 4, day 4, 91% of the cells of the population treated with PMA, and 90% of the cells of the population treated with TPB expressed NKX6.1.

Setting [1] is: PKC activator 20 nM in DMEM-High glucose+1% B27+100 ng/ml Noggin+1 μM ALK5 inhibitor II for four days.

Turning to `CCCC(=O)O[C@@H]1[C@@H](C)[C@@]2(O)[C@@H](C=C(CO)C[C@]3(O)C(=O)C(C)=C[C@@H]23)[C@@H]2C(C)(C)[C@]12OC(=O)CCC` [PDBu, phorbol-12,13-dibutyrate], under setting [1], the “percentage of total population expressing NKX6.1” value is listed as 88%±4.2.
On the same count and under the same terms, in the case of `CCCCCCCCCCCCCC(=O)O[C@@H]1[C@@H](C)[C@@]2(O)[C@@H](C=C(CO)C[C@]3(O)C(=O)C(C)=C[C@@H]23)[C@@H]2C(C)(C)[C@]12OC(C)=O` [PMA, phorbol-12-myristate-13-acetate] it was 91%.
In the case of “(2S, 5S)-(E, E)-8-(5-(4-(Trifluoromethyl)phenyl)-2,4-pentadiemoylamino) benzolactam [TPB]”, the “percentage of total population expressing NKX6.1” value (TPB 50 nM substituted for PDBu in treatment 3) was found to be 90%.

The record behind these values is US9752125B2, “Differentiation of human embryonic stem cells” (priority 2010, dated 2017).
